This note sets out measurements from PMC11678778, “Anti-Inflammatory Properties of Novel 1,2-Benzothiazine Derivatives and Their Interaction with Phospholipid Model Membranes” (Membranes, 2024).

One experiment addresses T1, COX-1 (Ovis aries, UniProt P05979).
T1 construct: purchased
T1 sequence (P05979 25-600): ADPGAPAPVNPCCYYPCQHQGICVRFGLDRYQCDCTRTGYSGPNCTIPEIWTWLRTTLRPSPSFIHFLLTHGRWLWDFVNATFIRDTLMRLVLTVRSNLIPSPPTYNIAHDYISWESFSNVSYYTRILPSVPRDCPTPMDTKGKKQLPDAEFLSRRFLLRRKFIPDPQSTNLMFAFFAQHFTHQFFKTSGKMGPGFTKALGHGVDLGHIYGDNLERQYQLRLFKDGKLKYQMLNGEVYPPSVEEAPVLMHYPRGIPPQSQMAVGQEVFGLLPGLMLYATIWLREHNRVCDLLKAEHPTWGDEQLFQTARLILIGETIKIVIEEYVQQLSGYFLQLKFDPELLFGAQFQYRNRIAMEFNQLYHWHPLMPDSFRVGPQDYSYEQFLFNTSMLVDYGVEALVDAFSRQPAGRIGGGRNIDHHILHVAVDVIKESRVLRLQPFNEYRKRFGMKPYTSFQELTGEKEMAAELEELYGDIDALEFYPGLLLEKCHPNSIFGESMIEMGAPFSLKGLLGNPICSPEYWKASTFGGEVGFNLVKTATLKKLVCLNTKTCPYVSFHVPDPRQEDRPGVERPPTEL
In words: Cyclooxygenase inhibition assay (colorimetric, peroxidase activity, TMPD oxidation). In kind it is biochemical. To be noted: incubation 2 min; mean ± SD. As for the experimental part:
To conduct the cyclooxygenase inhibition assay, we utilized a kit from the manufacturer that contained 150 μL of assay buffer, 10 μL of heme, and 10 μL of either COX-1 or COX-2 enzyme. Each sample was prepared in triplicate, with the addition of 10–500 μM of the test compounds and […] of solvents such as methanol, ethanol, and dimethyl sulfoxide (DMSO). We then added 20 μL of N,N,N cent,N cent-tetramethyl-p-phenylenediamine (TMPD) to each well. Arachidonic acid was introduced to initiate the reaction, which was allowed to proceed for 2 min. Following the incubation period, the extent of TMPD oxidation was measured using the multiscan Go microplate reader at a wavelength of 590 nm (Thermo Fisher Scientific, Waltham, MA, USA).
Cyclooxygenase (COX) peroxidase activity was evaluated using a colorimetric assay. […] The incubation period was maintained at 2 min, following the manufacturer’s guidelines. […] We determined the concentrations of all compounds required for 50% inhibition of COX-1 and COX-2. IC50 values were then calculated, and the ratio of IC50 values for both cyclooxygenase isoforms allowed us to assess the selectivity of the tested structures for COX-1 and COX-2.

For experiment [1], the system named is NHDF (normal human dermal fibroblast) cells. In words: MTT cytotoxicity assay. In kind it is cell-based. Conditions: NHDF cell cultures, 24 h incubation, mean ± SD. The procedure:
NHDF (normal human dermal fibroblast) cells, sourced from the American Type Culture Collection (ATCC), were maintained in DMEM without phenol red, enhanced with 10% fetal bovine serum (FBS), 2 mM L-glutamine, and 25 μg/mL gentamicin. The cells were incubated under conditions of 5% CO2, at a temperature of 37 °C, and 95% humidity. We monitored the cells bi-weekly, utilizing or subculturing them once they reached over 70% confluence. For all experimental setups, cells were plated at a density of 10,000 cells per well and allowed to recover in a CO2 incubator for 24 h.
The compounds under investigation were dissolved in DMSO to achieve a final concentration of 10 mM and then stored at −20 °C. Lipopolysaccharide (LPS) from Escherichia coli (Sigma-Aldrich, Saint Louis, MO, USA; catalog no. L2630) was dissolved in distilled water to a concentration of […]. The stock solution of LPS was stored at −20 °C for up to 6 months. Final concentrations of LPS used in this study were 50 µg/mL. Prior to use, the solutions were thawed at room temperature. For each compound, 8 different concentrations in the range of 500–10 μM were prepared in the culture medium.
The cytotoxicity of the test compound was assessed using the MTT assay. After cell seeding and overnight incubation, the supernatant was removed, and the compounds were added at concentrations ranging from 500 to 10 µM. Control cells were treated with complete medium only, while cells treated with medium containing DMSO at the highest compound concentration were included as the solvent control. After the incubation period, the supernatant was removed, and 50 µL of a 1.0 mg/mL MTT solution was added to each well and incubated for 2 h at 37 °C. The medium was then removed, and 100 µL of DMSO was added to each well. Finally, absorbance was measured at 570 nm using a Multiskan GO spectrophotometer.
Cell viability was calculated according to Equation (1): (Ai − Am)/(Ac − Am) × 100(Ai − Am)/(Ac − Am) × 100(1) where Ai is the absorbance of the tested concentration, Am is the absorbance of the medium, and Ac is the absorbance of the control. Based on the cytotoxicity test results, the IC50 was calculated using a 4-point lognormal distribution with a Hill coefficient. Experiments were performed in triplicate.
(Formazan colour is commonly taken as a measure of viable cells.)

A further experiment deals with TNF-α. In words: Gene expression by real-time RT-PCR. In kind it is cell-based, human. To be noted: inflamed NHDF cells, 10 µM, 24 h. As for the experimental part:
(§1) The NHDF cells were treated according to the previously outlined procedure. The control and LPS groups were incubated separately in culture dishes containing DMEM, while the test compounds groups were placed in dishes with 10 µM BS23 and BS28, respectively. After a 24 h incubation at 37 °C in a 5% CO2 atmosphere, the NHDF cells were scraped from the bottom of the microplate using a rubber, and then they were centrifuged at 9000× g for 5 min. The pellet was washed with ice-cold PBS twice. RNA was isolated using a Total RNA Mini Plus kit (A&A Biotechnology, Gdańsk, Poland) followed by DNase I (Thermo Fisher Scientific, Waltham, MA, USA) treatment according to the producer’s instructions. cDNA synthesis was performed using a Fast Gene Scriptase II cDNA (Nippon Genetics Europe, Duren, Germany). RT-qPCR analyses were performed using the DyNAmo Flash SYBR Green qPCR Kit (Thermo Fisher Scientific, Waltham, MA, USA) and the CFX Connect Real-Time PCR Detection System (Bio-Rad, Hercules, CA, USA) . Relative gene expression was normalized to the reference gene, β-actin, using the 2^−ΔΔCT method. The primer sequences utilized in this study were as follows: IL-6: F, 5′-[…]-3′; R, 5′-[…]-3′; TNF-α: F, 5′-[…]-3′; R, 5′-[…]-3′; β-actin: F, 5′-[…]-3′; R, 5′-[…]-3′. All experiments were performed at least three times.

In a further experiment the test system is IL-6. In words: Gene expression by real-time RT-PCR. In kind it is cell-based, human. To be noted: inflamed NHDF cells, 10 µM, 24 h. As for the experimental part:
as §1

The IC50 is the concentration that inhibits the measured activity by half. A high value points to weaker potency. As for `COc1ccc(C(=O)C2=C(O)c3ccccc3S(=O)(=O)N2CCCN2CCN(c3ccccn3)CC2)cc1` [BS23], the concentration for half-maximal inhibition (IC50) at COX-1 was determined as 242 ± 4.2 µM; in experiment [1], 228 ± 28.1 µM. The “expression of TNF-α mRNA compared to the LPS group” value in the experiment with TNF-α is “markedly reduced”. Also, the “expression of IL-6 mRNA compared to the LPS group” value in the experiment on IL-6 is given as “markedly reduced”.

On to `O=C(C1=C(O)c2ccccc2S(=O)(=O)N1CC(=O)N1CCN(c2ccccc2)CC1)c1ccc(Br)cc1` [BS28, 3-(4-Bromobenzoyl)-2-[2-(4-phenylpiperazin-1-yl)-2-oxoethyl]-4-hydroxy-2H-1,2-benzothiazine 1,1-dioxide], for which the IC50 against COX-1 was 95.9 ± 5.7 µM; in experiment [1] it was 180 ± 13.6 µM. Further, the “expression of TNF-α mRNA compared to the LPS group” value in the experiment on TNF-α is “markedly reduced”. Also, the “expression of IL-6 mRNA compared to the LPS group” value in the experiment on IL-6 is on record as “markedly reduced”.
